Reference: ChEMBL document CHEMBL4699511, “Cedrol, a Sesquiterpene Alcohol, Enhances the Anticancer Efficacy of Temozolomide in Attenuating Drug Resistance via Regulation of the DNA Damage Response and MGMT Expression” (J Nat Prod, 2020)
Activity calls are given as the source filed them. The calls are words filed in the database; no cut-off is given here.

Tests used:
DBTRG-05MG [1] = assay: Induction of cell cycle arrest in human DBTRG-05MG cells assessed as accumulation at G0/G1 phase at 206 uM after 48 hrs by propidium iodide staining based flow cytometric analysis (reference value: 47.16 +/- 1.55%); format: functional
DBTRG-05MG [2] = assay: Induction of cell cycle arrest in human DBTRG-05MG cells assessed as accumulation at S phase at 206 uM after 48 hrs by propidium iodide staining based flow cytometric analysis (reference value: 22.76 +/- 1.56%); format: functional
RG2 [3] = assay: Induction of cell cycle arrest in rat RG2 cells assessed as accumulation at G2/M phase at 206 uM after 12 hrs by propidium iodide staining based flow cytometric analysis (reference value: 20.04 +/- 0.55%); format: functional
RG2 [4] = assay: Induction of cell cycle arrest in rat RG2 cells assessed as accumulation at G0/G1 phase at 206 uM after 48 hrs by propidium iodide staining based flow cytometric analysis (reference value: 57.81 +/- 1.9%); format: functional
DBTRG-05MG [5] = assay: Induction of cell cycle arrest in human DBTRG-05MG cells assessed as CDK2 expression at 206 uM after 48 hrs by Western blot analysis (reference value: 1); format: functional
RG2 [6] = assay: Induction of cell cycle arrest in rat RG2 cells assessed as CyclinD1 expression at 206 uM after 48 hrs by Western blot analysis (reference value: 1); format: functional
DBTRG-05MG [7] = assay: Induction of apoptosis in human DBTRG-05MG cells assessed as Bcl2 expression at 206 uM after 48 hrs by Western blot analysis (reference value: 1); format: functional
DBTRG-05MG [8] = assay: Induction of apoptosis in human DBTRG-05MG cells assessed as cleaved PARP expression at 206 uM after 48 hrs by Western blot analysis (reference value: 1); format: functional
RG2 [9] = assay: Induction of DNA damage in rat RG2 cells assessed as ATM phosphorylation at ser1981 residues at 206 uM after 48 hrs by Western blot analysis (reference value: 1); format: functional
RG2 [10] = assay: Induction of DNA damage in rat RG2 cells assessed as ATR phosphorylation at ser428 residues at 206 uM after 48 hrs by Western blot analysis (reference value: 1); format: functional
DBTRG-05MG [11] = assay: Synergistic cytotoxicity against human DBTRG-05MG cells assessed as synergistic effect index at 134.9 uM after 48 hrs in presence of 206 uM TMZ by MTT assay; format: functional
DBTRG-05MG [12] = assay: Synergistic cytotoxicity against human DBTRG-05MG cells assessed as combination index at 89.9 uM after 48 hrs in presence of 206 uM TMZ by MTT assay; format: functional
DBTRG-05MG [13] = assay: Synergistic cytotoxicity against human DBTRG-05MG cells assessed as combination index at 89.9 uM after 48 hrs in presence of 412.1 uM TMZ by MTT assay; format: functional
DBTRG-05MG [14] = assay: Synergistic cytotoxicity against human DBTRG-05MG cells assessed as combination index at 134.9 uM after 48 hrs in presence of 412.1 uM TMZ by MTT assay; format: functional
RG2 [15] = assay: Synergistic cytotoxicity against rat RG2 cells assessed as synergistic effect index at 112.4 uM after 48 hrs in presence of 103 uM TMZ by MTT assay; format: functional
RG2 [16] = assay: Synergistic cytotoxicity against rat RG2 cells assessed as synergistic effect index at 134.9 uM after 48 hrs in presence of 412.1 uM TMZ by MTT assay; format: functional
RG2 [17] = assay: Synergistic cytotoxicity against rat RG2 cells assessed as combination index at 112.4 uM after 48 hrs in presence of 515.1 uM TMZ by MTT assay; format: functional
[18] = Synergistic cytotoxicity against rat CTX TNA2 cells assessed as synergistic effect index at 89.9 uM after 48 hrs in presence of 412.1 uM TMZ by MTT assay; format: cell-based; settings: ctx tna2, 48 h
[19] = Synergistic cytotoxicity against rat CTX TNA2 cells assessed as synergistic effect index at 89.9 uM after 48 hrs in presence of 515.1 uM TMZ by MTT assay; format: cell-based; settings: ctx tna2, 48 h
[20] = Synergistic cytotoxicity against rat CTX TNA2 cells assessed as combination index at 112.4 uM after 48 hrs in presence of 412.1 uM TMZ by MTT assay; format: cell-based; settings: ctx tna2, 48 h
RG2 [21] = assay: Induction of cell cycle arrest in rat RG2 cells assessed as accumulation at G2/M phase at 112.4 uM after 24 hrs by propidium iodide staining based flow cytometric analysis (reference value: 20.04 +/- 0.55%); format: functional
RG2 [22] = assay: Induction of cell cycle arrest in rat RG2 cells assessed as p21 expression at 112.4 uM after 48 hrs by Western blot analysis (reference value: 1); format: functional
[23] = Effect on ERK expression in human DBTRG-05MG cells at 112.4uM after 48 hrs by Western blot analysis (reference value: 1); format: functional
RG2 [24] = assay: Inhibition of ERK phosphorylation at Tyr204 residues in rat RG2 cells at 112.4uM after 48 hrs by Western blot analysis (reference value: 1); format: cell-based
RG2 [25] = assay: Induction of apoptosis in rat RG2 cells assessed as increase in DNA fragmentation at 112.4 uM after 48 hrs by TUNEL assay; format: functional, cell-based
DBTRG-05MG [26] = assay: Induction of apoptosis in human DBTRG-05MG cells assessed as Bcl2 expression at 112.4 uM after 48 hrs by Western blot analysis (reference value: 1); format: functional
DBTRG-05MG [27] = assay: Induction of apoptosis in human DBTRG-05MG cells assessed as cleaved caspace-3 expression at 112.4 uM after 48 hrs by Western blot analysis (reference value: 1); format: functional
DBTRG-05MG [28] = assay: Induction of apoptosis in human DBTRG-05MG cells assessed as cleaved caspace-3 expression at 112.4 uM after 48 hrs in presence of TMZ by Western blot analysis (reference value: 1); format: functional
RG2 [29] = assay: Induction of DNA damage in rat RG2 cells assessed as ATM phosphorylation at ser1981 residues at 112.4 uM after 48 hrs by Western blot analysis (reference value: 1); format: functional
RG2 [30] = assay: Induction of DNA damage in rat RG2 cells assessed as ATR phosphorylation at ser428 residues at 112.4 uM after 48 hrs by Western blot analysis (reference value: 1); format: functional
RG2 [31] = assay: Induction of DNA damage in rat RG2 cells assessed as Chk2 phosphorylation at Thr68 at 112.4 uM after 48 hrs by Western blot analysis (reference value: 1); format: functional
DBTRG-05MG [32] = assay: Induction of DNA damage in human DBTRG-05MG cells assessed as Chk2 phosphorylation at Thr68 residues at 112.4 uM after 48 hrs in presence of TMZ by Western blot analysis (reference value: 1); format: functional
RG2 [33] = assay: Induction of DNA damage in rat RG2 cells assessed as H2A.X phosphorylation at ser139 at 112.4 uM after 48 hrs in presence of TMZ by Western blot analysis (reference value: 1); format: functional
DBTRG-05MG [34] = assay: Potentiation of TMZ-induced antitumor activity against human DBTRG-05MG cells xenografted in BALB/c nude mouse assessed as increase in survival time at 75 mg/kg, sc co-treated with TMZ for 18 days; format: functional, organism-based; settings: time 18.0 day

Question: With Cn1nnc2c(C(N)=O)ncn2c1=O [TEMOZOLOMIDE] as the compound, how does the Activity (DBTRG-05MG [1]) read?
Answer: 22.95%

Question: And the Activity (DBTRG-05MG [2])?
Answer: 23.42%

Question: And the Activity (RG2 [3])?
Answer: 28.32%

Question: And the Activity (RG2 [4])?
Answer: 26.97%

Question: What about the “fold change (FC)” value (DBTRG-05MG [5]) of the same compound?
Answer: 0.8

Question: What about the “fold change (FC)” value (RG2 [6]) of the same compound?
Answer: 1

Question: What about the “fold change (FC)” value (DBTRG-05MG [7]) of the same compound?
Answer: 1.3

Question: What about the “fold change (FC)” value (DBTRG-05MG [8]) of the same compound?
Answer: 1.4

Question: What about the “fold change (FC)” value (RG2 [9]) of the same compound?
Answer: 0.9

Question: What about the “fold change (FC)” value (RG2 [10]) of the same compound?
Answer: 0.8

Question: Which Activity_index (DBTRG-05MG [11]) does the source give for C[C@@H]1CC[C@H]2C(C)(C)[C@H]3C[C@@]12CC[C@@]3(C)O [CEDROL] here?
Answer: 0.88

Question: And the CI (DBTRG-05MG [12])?
Answer: 0.74

Question: And the CI (DBTRG-05MG [13])?
Answer: 0.8

Question: And the CI (DBTRG-05MG [14])?
Answer: 0.6

Question: What about the Activity_index (RG2 [15]) of the same compound?
Answer: 0.83

Question: What about the Activity_index (RG2 [16]) of the same compound?
Answer: 0.9

Question: What about the CI (RG2 [17]) of the same compound?
Answer: 1.06

Question: What about the Activity_index [18] of the same compound?
Answer: 0.56

Question: And the Activity_index [19]?
Answer: 0.68

Question: What about the CI [20] of the same compound?
Answer: 1.1

Question: What about the Activity (RG2 [21]) of the same compound?
Answer: 18.42%

Question: What about the “fold change (FC)” value (RG2 [22]) of the same compound?
Answer: 1.6

Question: What about the “fold change (FC)” value [23] of the same compound?
Answer: 1

Question: And the fold change (FC) (RG2 [24])?
Answer: 0.9

Question: And the Activity (RG2 [25])?
Answer: Active

Question: And the “fold change (FC)” value (DBTRG-05MG [26])?
Answer: 1.3

Question: And the “fold change (FC)” value (DBTRG-05MG [27])?
Answer: 2.2

Question: And the “fold change (FC)” value (DBTRG-05MG [28])?
Answer: 4.4

Question: And the “fold change (FC)” value (RG2 [29])?
Answer: 1

Question: And the “fold change (FC)” value (RG2 [30])?
Answer: 0.9

Question: And the “fold change (FC)” value (RG2 [31])?
Answer: 1

Question: And the “fold change (FC)” value (DBTRG-05MG [32])?
Answer: 2.6

Question: What about the “fold change (FC)” value (RG2 [33]) of the same compound?
Answer: 1.3

Question: And the Activity (DBTRG-05MG [34])?
Answer: Active
